According to patent publication US20230348562A1, “Proinsulin Peptides for Type I Diabetes” (King's College London, priority 2019, published 2023):
Where no end group is shown, it is not given here.

Experiments:
[1] = system: DR3DQ2×RIP-B7.1 mice; test: Adjuvanted antigen priming (disease acceleration), diabetes monitoring; type: in vivo
Text: Mice were monitored weekly for diabetes up to 20 weeks post prime. The grey dotted line indicates the expected level of spontaneous diabetes in mice aged 12 weeks on day 0 of the experiments (based on the data in FIG. 1 and normalised for gender). Statistical analysis with Mantel-Cox Log-rank test. **p<0.01, ***p<0.001. • (b-e) Blood glucose levels for each individual mouse in the group immunised with PBS (b), murine proinsulin-2 peptides (c), human GAD65 (d) or fragment of human IA-2 (e).
Mice were monitored weekly for diabetes up to 20 weeks post prime. The grey dotted line indicates the expected level of spontaneous diabetes in mice aged 8 weeks on day 0 of the experiment, based on the data in FIG. 1 and normalised for gender. Statistical analysis with Mantel-Cox Log-rank test. ***p<0.001 for B23-C20 versus B1-30 or C10-A6. ? p<0.01 for B23-C20 versus C25-A21. Rest not significant. • (b-e) Blood glucose levels for each individual mouse in the group immunised with B1-30 (b), B23-C20 (c), C10-A6 (d) or C25-A21 (e).
(a) DR3DQ2×RIP-B7.1 mice aged 10-14 weeks were challenged with 100 μg of either GP-15 (2 ♂3♀), YA-15 (2 ♂3♀), ME-15 (3 ♂2♀), RG-15 (3 ♂2♀), DA-15 (2 ♂3♀) or VD-14 (3♂2♀) peptide in TiterMax Gold adjuvant s.c. on days 0 and 14, with 200 ng pertussis toxin administered i.p on days 0 and 1 or 2. Mice were monitored weekly for diabetes up to 20 weeks post prime. The grey dotted line indicates the expected level of spontaneous diabetes in mice aged 14 weeks on day 0 of the experiments (based on the data in FIG. 1 and normalised for gender). Statistical analysis with Mantel-Cox Log-rank test. *p<0.05 for RG-15 versus YA-15, **p<0.01 for ME-15 versus GP-15, YA-15 or VD-14. ? p<0.05 for ME-15 versus DA-15. Rest not significant. (b-f) Blood glucose levels for each individual mouse in the group immunised with GP-15 (b), YA-15 (c), ME-15 (d), RG-15 (e), DA-15 (f), VD-14 (g).
HLA-DR3-DQ2-transgenic (B6.hCD4.DR3-DQ2.MHCII^−/− mice (described previously (de Kauwe A L et al. (2009) J Immunol 182(12): 7440-7450), and obtained from J. McCluskey) were crossed with RIP-B7.1-transgenic animals (B6.Cg-Tg(Ins2-CD80)3B7Flv/Orl, EMMA, Orleans, France; ID 00216) in order to obtain HLA-DR3-DQ2^+huCD4^+IA/IE^−/−RIP.B7.1^+ mice, hereafter referred to as DR3DQ2×RIP-B7.1. DR4×RIP-B7.1 mice, generated by crossing B6.129S2-H2-Ab1^tm/Gru Tg(HLA-DRA/H2-Ea,HLA-DRB1*0401/H2-Eb) 1Kito mice with B6.Cg-Tg(Ins2-CD80)3B7Flv/Orl, were described previously (Verhagen J, et al. (2018) Sci Rep 8(1): 14106). All animals were kept under specific-pathogen-free conditions, in individually ventilated cages, at the KCL Biological Services Unit on 12-hour light/dark cycles with food and water provided ad libitum. Experiments were conducted in accordance with UK Home Office regulations under a project license held by M. Peakman. All work was subject to assessment and approved locally by Guy's animal welfare and ethical review board (AWERB).
All mice were monitored regularly for unprovoked glycosuria using Diastix strips (Bayer, Basel, Switzerland). Some mice were monitored weekly for hyperglycaemia, from the age of 6-7 weeks, by a minimal puncture of the tail vein at alternate sides of the tail and analysis using a OneTouch Verio meter and strips (Lifescan, High Wycombe, UK), in order to closely monitor progression towards spontaneous diabetes. Mice were considered diabetic following a blood glucose reading >16.7 mmol/l (300 mg/dl) in addition to confirmed glycosuria. […] Mice (aged 6-14 weeks) were primed with 100 μg of peptides or protein in TiterMax Gold adjuvant (TiterMax, Norcross, GA, USA) subcutaneously (s.c.) at the base of the tail and received a second dose s.c. distributed over the inguinal region on day 14. Mice received 200 ng Pertussis toxin (Sigma, Poole, UK) in PBS intraperitoneally (i.p.) on days 0 and 1 or 2. Mice were then monitored weekly for hyperglycaemia and for glycosuria. […]

[2] = system: human peripheral blood mononuclear cells (PBMCs); test: ELISPOT assay of cytokine responses to proinsulin peptides; type: cell-based; conditions: 10 μg/ml peptide, 48 hours
Text: Responses to proinsulin B30-C13 in human donors. PBMC from individuals with either HLA-DR3-DQ2 (a) or any other haplotype (b) were stimulated in vitro with human proinsulin-derived peptide B30-C13 or C19-A3 prior to detection of IFNγ by ELISPOT assay. HLA-DR3-DQ2 individuals, n=3; non-HLA-DR3-DQ2, n=6. *p<0.05, ratio paired t test.
Responses to proinsulin B23-C20, B29-C11, B29-C14, B30-C13 and C-1-C14 peptides are shown. PBMCs from 5 type 1 diabetes patients with HLA-DR3-DQ2 (identified as #1-#5) were stimulated in vitro with human proinsulin-derived peptides B23-C20, B29-C11, B29-C14, B30-C13 and C−1-C14 prior to detection of IFN-γ and IL-17 (pro-inflammatory responses) and IL-10 (regulatory response) by ELISPOT assay. […]
ELISPOT assays were carried out using human peripheral blood mononuclear cells (PBMCs) isolated from fresh heparinized blood. […] The cytokine secretion assay was performed using the IFN-γ, IL-17 and IL-10 ELISPOT kits (U-CyTech) according to the manufacturer's instructions and plates were analysed using an automated ELISPOT Bioreader 6000 (Bio-Sys) and relevant software. Data are expressed as the total number of spots in triplicate wells after peptide stimulation divided by the total number of spots in diluent only control wells (stimulation index [SI]) or as responder CD4 T cells/10^6 PBMCs.

[3] = Solubility of peptide; type: physicochemical
[4] = system: RIP.CD80×DR3DQ2 mice; test: Tolerance induction against accelerated diabetes; type: in vivo; conditions: 10 μg soluble peptide s.c., 6 injections, before and after priming with murine B23-C20 in adjuvant; ME-15 versus YA-15 p<0.01, versus VD-14 p<0.05
Protocol: FIG. 6 Tolerance induction against accelerated diabetes in RIP.CD80×DR3DQ2 mice. (a) Schedule of dosing. Mice aged 7-8 weeks (n=7 per group) were treated with soluble 14/15-mer peptide in PBS subcutaneously (s.c.) before and after acceleration of diabetes development by antigenic priming with 30-mer murine proinsulin-2 peptide B23-C20 in TiterMax Gold adjuvant on days 0 and 14. Pertussis toxin administered intraperitoneally (i.p.) on days 0 and 2. (b) Diabetes incidence in mice treated with 14/15-mer peptide ME-15 (1♀6♂), YA-15 (4♀3♂) or VD-14 (3♀4♂). Statistical analysis with Mantel-Cox Log-rank test. ME-15 versus YA-15, p<0.01; ME versus VD-14, p<0.05.
All mice were monitored regularly for unprovoked glycosuria using Diastix strips (Bayer, Basel, Switzerland). Some mice were monitored weekly for hyperglycaemia, from the age of 6-7 weeks, by a minimal puncture of the tail vein at alternate sides of the tail and analysis using a OneTouch Verio meter and strips (Lifescan, High Wycombe, UK), in order to closely monitor progression towards spontaneous diabetes. Mice were considered diabetic following a blood glucose reading >16.7 mmol/l (300 mg/dl) in addition to confirmed glycosuria. […] Mice were then monitored weekly for hyperglycaemia and for glycosuria. […]

[5] = adjuvanted priming, follow up to 20 weeks post prime

Substance: GFFYTPMSRREVEDPQVAQLELGGGPGAGD (listed as Mus musculus) [B23-C20, murine 30-mer proinsulin-2 peptide B23-C20]
- mean time of onset of diabetes (SD) ([1]; 100 μg in TiterMax Gold adjuvant s.c. days 0 and 14, pertussis toxin): 49±16.2 days post prime
- diabetes incidence ([1]; by day 84 post prime, 100 μg in TiterMax Gold adjuvant): 100%
- diabetes acceleration / incidence versus control or spontaneous onset (in words) ([1]; mouse, in vivo): most overt disease exacerbation, with very rapid development of diabetes

Substance: TRREAEDLQVGQVELG (listed as Homo sapiens) [B30-C13, fragment of human proinsulin, residues B30-C13]
- IFNγ ELISPOT response, HLA-DR3-DQ2 donors versus donors without this haplotype ([2]; HLA-DR3-DQ2 n=3, non-HLA-DR3-DQ2 n=6): greater response
- IFNγ ELISPOT response versus control peptide C19-A3 ([2]; p<0.05 ratio paired t test): greater than that to our control peptide C19-A3

Substance: REVEDPQVAQLELGG [RG-15, REVEDPQVAQLELGG]
- solubility in aqueous solution ([3]; aqueous solution): highly insoluble
- solubility in dimethyl sulfoxide ([3]; dimethyl sulfoxide): soluble

Substance: VAQLELGGGPGAGD (listed as Mus musculus) [VD-14, murine proinsulin-2 14-mer]
- diabetes acceleration / incidence versus control or spontaneous onset (in words) [1, 5]: cannot

Substance: GAD65: Recombinant human GAD65 (T-cell GAD) purchased from Diamyd Medical
- diabetes acceleration / incidence versus control or spontaneous onset (in words) [1, 5]: only priming with proinsulin peptides clearly hastened diabetes onset and increased incidence

Substance: MSRREVEDPQVAQLE (listed as Mus musculus) [ME-15]
- diabetes acceleration / incidence versus control or spontaneous onset (in words) [1, 5]: markedly higher disease incidence during follow up than would be expected spontaneously
- tolerogenic effect on diabetes induced with B23-C20 [4]: tolerogenic effect

Substance: DPQVAQLELGGGPGA (listed as Mus musculus) [DA-15, murine proinsulin-2 15-mer]
- diabetes acceleration / incidence versus control or spontaneous onset (in words) [1, 5]: cannot
